Results taken from ChEMBL document CHEMBL4483862, “Open-source discovery of chemical leads for next-generation chemoprotective antimalarials” (2018).

Test system: Plasmodium berghei
Test: Luciferase/luciferin-expressing antifolate-resistant parasites were used to infect a culture of HepG2 cells that were pre-incubated with compounds. Infected hepatocytes emit light due to the luciferase reaction. Assay results are presented as the percent inhibition of light emission compared to control. […]
Type: functional
Conditions: sporozoite; for IC90: read-out: LUCIFERASE INFECTION ASSAY - IC90

Row | Compound | IC90 [µM] | further results
1 | CN(C)c1ccc(C2CNC(c3ccc(Cl)c([N+](=O)[O-])c3)c3[nH]c4ccccc4c32)cc1 (configuration not stated) | > 10 | IC50 (PBLUC_HILL_SLOPE 1.52, PBLUC_R_SQUARED 0.0896, read-out: LUCIFERASE INFECTION ASSAY - IC50): > 10 µM
2 | COc1cc(C(=O)Nc2cccc(-n3cnnn3)c2)cc(OC)c1OC | > 9.29 | IC50 (PBLUC_HILL_SLOPE 1.51, PBLUC_R_SQUARED 0.135, read-out: LUCIFERASE INFECTION ASSAY - IC50): 5.06 µM
3 | S=C(NCCc1csc2ccccc12)Nc1ccc(Cl)cc1 | > 9.51 | IC50 (PBLUC_HILL_SLOPE 1.56, PBLUC_R_SQUARED 0.124, read-out: LUCIFERASE INFECTION ASSAY - IC50): > 9.51 µM
4 | N#CC1(C#N)C2C=CC(C2)C1(C#N)C#N | > 17 | IC50 (PBLUC_HILL_SLOPE 1.54, PBLUC_R_SQUARED 0.0374, read-out: LUCIFERASE INFECTION ASSAY - IC50): > 17 µM
5 | Fc1ccc(Nc2nccc3c2ncn3Cc2ccccc2)cc1Cl | > 10 | IC50 (PBLUC_HILL_SLOPE 1.48, PBLUC_R_SQUARED 0.272, read-out: LUCIFERASE INFECTION ASSAY - IC50): 3.67 µM
6 | Cn1nnnc1SCC(=O)Nc1ccc(C(=O)Nc2ncccc2O)cc1 | 6.88 | IC50 (PBLUC_HILL_SLOPE 1.53, PBLUC_R_SQUARED 0.512, read-out: LUCIFERASE INFECTION ASSAY - IC50): 1.64 µM
7 | CSC(=NNc1ccc([N+](=O)[O-])cc1)NC(=O)c1c(Cl)cccc1Cl | > 8.27 | IC50 (PBLUC_HILL_SLOPE 1.5, PBLUC_R_SQUARED 0.194, read-out: LUCIFERASE INFECTION ASSAY - IC50): 7.91 µM
8 | Cc1ccc(OCc2csc(-c3cnn(C)c3)n2)c2c1C(C)CC2=O (configuration not stated) | > 10 | IC50 (PBLUC_HILL_SLOPE 1.52, PBLUC_R_SQUARED 0.607, read-out: LUCIFERASE INFECTION ASSAY - IC50): 3.47 µM
9 | COc1ccc2c(c1)CCCC21NC(=O)N(Cc2nc3ccccc3s2)C1=O (configuration not stated) | 8.43 | IC50 (PBLUC_HILL_SLOPE 1.51, PBLUC_R_SQUARED 0.684, read-out: LUCIFERASE INFECTION ASSAY - IC50): 1.97 µM
10 | CC(C)c1ccc(C2C3CCc4ccccc4C3=NN2CCO)cc1 (configuration not stated) | 1.32 | IC50 (PBLUC_HILL_SLOPE 1.49, PBLUC_R_SQUARED 0.685, read-out: LUCIFERASE INFECTION ASSAY - IC50): 0.301 µM
11 | CC1(C)CS/C(=N\Cc2ccccc2)N1C(=O)C(c1ccccc1)c1ccccc1 | > 10 | IC50 (PBLUC_HILL_SLOPE 1.51, PBLUC_R_SQUARED 0.0539, read-out: LUCIFERASE INFECTION ASSAY - IC50): > 10 µM
12 | O=C(CSc1nnc(/C=C/c2ccc(F)cc2)[nH]1)N(c1ccccc1)C1CCCCC1 | 1.58 | IC50 (PBLUC_HILL_SLOPE 1.52, PBLUC_R_SQUARED 0.866, read-out: LUCIFERASE INFECTION ASSAY - IC50): 0.374 µM
13 | CNC(=O)c1nn(CC2CCCCC2)c2c1CC(NC1CCCC1)CC2 (configuration not stated) | > 9.2 | IC50 (PBLUC_HILL_SLOPE 1.5, PBLUC_R_SQUARED 0.479, read-out: LUCIFERASE INFECTION ASSAY - IC50): 4.38 µM
14 | CNc1nc2cnc(-c3cccc4ccccc34)cc2n1-c1ccccc1 | > 10 | IC50 (PBLUC_HILL_SLOPE 1.54, PBLUC_R_SQUARED 0.64, read-out: LUCIFERASE INFECTION ASSAY - IC50): 4.99 µM
15 | Cc1ccc(NC(=O)COc2ccc3c(c2C)OC(C)(C)CC3)cc1 | > 9.72 | IC50 (PBLUC_HILL_SLOPE 1.51, PBLUC_R_SQUARED 0.601, read-out: LUCIFERASE INFECTION ASSAY - IC50): 3.8 µM
16 | COc1ccc(O)c(C(=O)c2cc(Cl)c3nc4ccccc4c(=O)n3c2)c1 | 0.494 | IC50 (PBLUC_HILL_SLOPE 1.52, PBLUC_R_SQUARED 0.671, read-out: LUCIFERASE INFECTION ASSAY - IC50): 0.117 µM
17 | CC(C)(C)c1cc(C(=O)Nc2ccc(Cl)cc2)n(Cc2ccccc2)n1 | > 8.97 | IC50 (PBLUC_HILL_SLOPE 1.52, PBLUC_R_SQUARED 0.257, read-out: LUCIFERASE INFECTION ASSAY - IC50): 6.98 µM
18 | CCCCNC(=O)COc1ccc2[nH]c3ccccc3c(=O)c2c1 | 8.21 | IC50 (PBLUC_HILL_SLOPE 1.51, PBLUC_R_SQUARED 0.724, read-out: LUCIFERASE INFECTION ASSAY - IC50): 1.92 µM
19 | CNC(=O)c1ccc2n1CCN(C(=O)OCc1ccccc1)C2C (configuration not stated) | > 10 | IC50 (PBLUC_HILL_SLOPE 1.5, PBLUC_R_SQUARED 0.67, read-out: LUCIFERASE INFECTION ASSAY - IC50): 3.17 µM
20 | FC(F)(F)c1ccnc(N2CCN(C(c3ccccc3)c3ccccc3)CC2)c1 | > 8.3 | IC50 (PBLUC_HILL_SLOPE 1.54, PBLUC_R_SQUARED 0.0984, read-out: LUCIFERASE INFECTION ASSAY - IC50): > 8.3 µM
21 | CCCCCCCCSC(=S)c1c(C)[nH]n(-c2ccccc2)c1=O | > 9.1 | IC50 (PBLUC_HILL_SLOPE 1.5, PBLUC_R_SQUARED 0.801, read-out: LUCIFERASE INFECTION ASSAY - IC50): > 9.1 µM

Row | Compound | IC90 [µM] | further results
22 | Cc1occc1C(=O)Nc1ccc(Cl)c(C(F)(F)F)c1 | > 10 | IC50 (PBLUC_HILL_SLOPE 1.47, PBLUC_R_SQUARED 0.656, read-out: LUCIFERASE INFECTION ASSAY - IC50): 6.43 µM
23 | O/N=C1/c2ccccc2-c2nnc(-c3cccc(OC(F)(F)F)c3)cc21 | 1.49 | IC50 (PBLUC_HILL_SLOPE 1.48, PBLUC_R_SQUARED 0.765, read-out: LUCIFERASE INFECTION ASSAY - IC50): 0.337 µM
24 | c1cc[n+](Cc2ccc(-c3nc4ccccc4s3)cc2)cc1 | 7.9 | IC50 (PBLUC_HILL_SLOPE 1.53, PBLUC_R_SQUARED 0.36, read-out: LUCIFERASE INFECTION ASSAY - IC50): 1.88 µM
25 | COC(=O)C1=CC2C3C(=O)N(c4cc(Cl)cc(Cl)c4)C(=O)C3C1C1C(=O)N(c3cc(Cl)cc(Cl)c3)C(=O)C21 (configuration not stated) | > 5.55 | IC50 (PBLUC_HILL_SLOPE 1.53, PBLUC_R_SQUARED 0.573, read-out: LUCIFERASE INFECTION ASSAY - IC50): 2.18 µM
26 | C=CCc1c(C)nc2c(-c3ccccc3)cnn2c1N1CCN(CCO)CC1 | > 8.74 | IC50 (PBLUC_HILL_SLOPE 1.51, PBLUC_R_SQUARED 0.304, read-out: LUCIFERASE INFECTION ASSAY - IC50): 2.98 µM
27 | C(=C\c1nc2ccccc2s1)/c1ccc(CN2CCCCC2)cc1 | 2.91 | IC50 (PBLUC_HILL_SLOPE 1.51, PBLUC_R_SQUARED 0.817, read-out: LUCIFERASE INFECTION ASSAY - IC50): 0.679 µM
28 | CN(C)C(CNC(=O)c1ccc(COc2ccccc2)cc1)Cc1ccccc1 (configuration not stated) | > 10 | IC50 (PBLUC_HILL_SLOPE 1.49, PBLUC_R_SQUARED 0.218, read-out: LUCIFERASE INFECTION ASSAY - IC50): 7.64 µM
29 | CC(NC(=O)c1cc(-c2ccc3c(c2)OCCO3)nc2c1cnn2C(C)C)c1nc2ccccc2[nH]1 (configuration not stated) | > 10 | IC50 (PBLUC_HILL_SLOPE 1.49, PBLUC_R_SQUARED 0.0633, read-out: LUCIFERASE INFECTION ASSAY - IC50): > 10 µM
30 | CCOC(=O)c1c(C)nn(-c2ccc(N3C(=O)C=CC3=O)cc2)c1C | > 9.72 | IC50 (PBLUC_HILL_SLOPE 1.49, PBLUC_R_SQUARED 0.186, read-out: LUCIFERASE INFECTION ASSAY - IC50): 6.99 µM
31 | c1ccc(OCCCn2c(CN3CCCCC3)nc3ccccc32)cc1 | > 9.44 | IC50 (PBLUC_HILL_SLOPE 1.54, PBLUC_R_SQUARED 0.0855, read-out: LUCIFERASE INFECTION ASSAY - IC50): > 9.44 µM
32 | CCOC(=O)N1CCC(NCC(O)COc2ccc(C(C)(C)C)cc2)CC1 (configuration not stated) | > 10 | IC50 (PBLUC_HILL_SLOPE 1.54, PBLUC_R_SQUARED 0.688, read-out: LUCIFERASE INFECTION ASSAY - IC50): 4.08 µM
33 | O=S(=O)(Oc1cncc(Cl)c1)c1cc(Cl)cc(Cl)c1 | > 9.75 | IC50 (PBLUC_HILL_SLOPE 1.51, PBLUC_R_SQUARED 0.362, read-out: LUCIFERASE INFECTION ASSAY - IC50): 8.89 µM
34 | CC1(C)CC(=O)C2Sc3ccccc3N=C2C1 (configuration not stated) | > 13.5 | IC50 (PBLUC_HILL_SLOPE 1.5, PBLUC_R_SQUARED 0.224, read-out: LUCIFERASE INFECTION ASSAY - IC50): 10.8 µM
35 | COc1ccc(NC(C(=O)Nc2cccc(C(F)(F)F)c2)c2ccccc2)cc1OC (configuration not stated) | > 10 | IC50 (PBLUC_HILL_SLOPE 1.54, PBLUC_R_SQUARED 0.609, read-out: LUCIFERASE INFECTION ASSAY - IC50): 5.09 µM
36 | Nc1ccc(C(OC(=O)c2ccc(Cl)cc2Cl)(C(F)(F)F)C(F)(F)F)cc1 | > 10 | IC50 (PBLUC_HILL_SLOPE 1.55, PBLUC_R_SQUARED 0.496, read-out: LUCIFERASE INFECTION ASSAY - IC50): 8.08 µM
37 | COc1ccc2c(c1)CCCC21NC(=O)N(Cc2cc(=O)n3cc(C)ccc3n2)C1=O (configuration not stated) | 1.38 | IC50 (PBLUC_HILL_SLOPE 1.52, PBLUC_R_SQUARED 0.761, read-out: LUCIFERASE INFECTION ASSAY - IC50): 0.324 µM
38 | CC(C)c1ccc(OCC(=O)NC2CCCCCCC2)cc1 | > 10.9 | IC50 (PBLUC_HILL_SLOPE 1.5, PBLUC_R_SQUARED 0.0788, read-out: LUCIFERASE INFECTION ASSAY - IC50): > 10.9 µM
39 | CC(Sc1nc2ccccc2c(=O)n1CCN(C(C)C)C(C)C)C(N)=O (configuration not stated) | > 10 | IC50 (PBLUC_HILL_SLOPE 1.51, PBLUC_R_SQUARED 0.457, read-out: LUCIFERASE INFECTION ASSAY - IC50): 6.73 µM
40 | CCn1c(=O)n(Cc2ncc(-c3cccc(Cl)c3)o2)c2ccccc21 | > 10 | IC50 (PBLUC_HILL_SLOPE 1.51, PBLUC_R_SQUARED 0.651, read-out: LUCIFERASE INFECTION ASSAY - IC50): 5.23 µM
41 | COc1ccc(C2Sc3ccccc3N=C3C2=C(O)c2ccccc23)cc1 (configuration not stated) | 1.84 | IC50 (PBLUC_HILL_SLOPE 1.48, PBLUC_R_SQUARED 0.746, read-out: LUCIFERASE INFECTION ASSAY - IC50): 0.42 µM
